# Key:
# rats = experiment: hyperactivity induced by injection of amphetamine into the nucleus accumbens (motor activity), antipsychotic activity; assay type: in vivo
# Description: Tests were conducted to measure the antipsychotic activity of the compounds of the invention. In particular, the hyperactivity induced in rats by the perfusion of amphetamine into the nucleus accumbens was evaluated. This test consists in determining the effect of the compounds of the invention on hyperactivity produced in rats by the injection of amphetamine into the nucleus accumbens. Hyperactivity was induced by injecting 20 μg of amphetamine bilaterally into the nucleus accumbens. The compounds of the invention were administered subcutaneously at doses of 1 mg/kg and 10 mg/kg, 40 minutes before the injection of amphetamine. For each dose of test product, a group of 5 animals was used. A group treated only with amphetamine and a reference group which received only an inert vehicle comprised 10 animals.
# Immediately after the injection of amphetamine, the rats were placed in individual cages equipped with photoelectric cells. Motor activity, characterized by the number of shifts from place to place in these cages, was determined by the number of interruptions of a light beam striking these cells. The measurements were made during the 80 minutes following the injection of amphetamine. The results, expressed as the number of shifts from place to place per 10-minute period, are collated in Table 2.
# mice = experiment: two compartment (dark and light) box test, anxiolytic activity; assay type: in vivo; settings: for % time in black compartment / Black compartment rearings/5 min / Black compartment transits/5 min / Delay white → black / White compartment rearings/5 min / White compartment transits/5 min: 40 min after administration, S.E.M. <12.6%, n = 5; for minimal effective dose: Mus musculus, sc, 40 min, subcutaneous, mice, read-out: dose at and above which anxiolytic activity is manifested
# Description: The two compartment box test was conducted in mice to evaluate anxiolytic activity. This test is based on a natural aversion of mice to light. The apparatus used is a box containing two compartments, one of which is dark (labeled "black compartment" in the Table 1) and the other illuminated (labeled "white compartment" in Table 1). The apparatus is designed to allow the animal to choose between staying in either of the two compartments. Under normal conditions, the mice avoid light and usually remain in the dark compartment. Under the influence of an anxiolytic agent, however, exploration of the illustrated compartment predominates. The test consists of placing each mouse in the center of the illuminated compartment and observing the animal's behavior by video system for 5 minutes. The number of exploratory rearings and the number of displacements (the crossing of lines traced on the floor of each compartment constitute "passages") are then recorded for each compartment. An anxiolytic effect induced by a drug, such as diazepam, is characterized by an increase in the number of exploratory rearings and in the number of passages into the illuminated compartment. The compounds of the invention were injected subcutaneously at variable doses, each dose being administered to a group of 5 mice.
# [1] = acute toxicity, median lethal dose (LD50) intravenously; settings: mouse, in vivo, iv
# Source text: The compounds of the invention were also subjected to a study of acute toxicity when injected intravenously in male mice and female mice, which enabled the median lethal doses (LD50) to be determined.
compound,measurement,setting,value
"CC(N)Cc1ccccc1 (centres unmarked) [Amphetamine, amphetamine, reference compound]",Motor activity,"rats; amphetamine alone 20 μg bilaterally into nucleus accumbens, time 10 min",31 ± 4 shifts from place to place/10
same,Motor activity,"rats; amphetamine alone 20 μg bilaterally into nucleus accumbens, time 20 min",48 ± 5 shifts from place to place/10
same,Motor activity,"rats; amphetamine alone 20 μg bilaterally into nucleus accumbens, time 30 min",66 ± 7 shifts from place to place/10
same,Motor activity,"rats; amphetamine alone 20 μg bilaterally into nucleus accumbens, time 40 min",59 ± 7 shifts from place to place/10
same,Motor activity,"rats; amphetamine alone 20 μg bilaterally into nucleus accumbens, time 50 min",36 ± 5 shifts from place to place/10
same,Motor activity,"rats; amphetamine alone 20 μg bilaterally into nucleus accumbens, time 60 min",29 ± 4 shifts from place to place/10
same,Motor activity,"rats; amphetamine alone 20 μg bilaterally into nucleus accumbens, time 70 min",19 ± 3 shifts from place to place/10
same,Motor activity,"rats; amphetamine alone 20 μg bilaterally into nucleus accumbens, time 80 min",8 ± 3 shifts from place to place/10
"C=CCN1CCCC1CNC(=O)c1cc(Cl)c(NC2=NC(C)CN2)cc1OC (centres unmarked) [Compound 2, N-(1-allyl-2-pyrrolidinylmethyl)-2-methoxy-4-[(4,5-dihydro-4-methyl-1H-imidazol-2-yl)amino]-5-chlorobenzamide]",% time in black compartment,mice; 0.01 mg/kg s.c.,49%
same,Black compartment rearings/5 min,mice; 0.01 mg/kg s.c.,27 rearings/5 min
same,Black compartment transits/5 min,mice; 0.01 mg/kg s.c.,30 transits/5 min
same,Delay white → black,mice; 0.01 mg/kg s.c.,18 s
same,White compartment rearings/5 min,mice; 0.01 mg/kg s.c.,43 rearings/5 min
same,White compartment transits/5 min,mice; 0.01 mg/kg s.c.,51 transits/5 min
same,% time in black compartment,mice; 0.1 mg/kg s.c.,29%
same,Black compartment rearings/5 min,mice; 0.1 mg/kg s.c.,20 rearings/5 min
same,Black compartment transits/5 min,mice; 0.1 mg/kg s.c.,25 transits/5 min
same,Delay white → black,mice; 0.1 mg/kg s.c.,20 s
same,White compartment rearings/5 min,mice; 0.1 mg/kg s.c.,83 rearings/5 min
same,White compartment transits/5 min,mice; 0.1 mg/kg s.c.,80 transits/5 min
same,minimal effective dose,mice,≥ 10 µg/kg
same,LD50,[1]; female mice,42 mg/kg
same,LD50,[1]; male mice,42 mg/kg
"CCN(CC)CCNC(=O)c1cc(Br)c(NC2=NCCN2)cc1OC [Compound 6, N-[2-(diethylamino)ethyl]-2-methoxy-4-[(4,5-dihydro-1H-imidazol-2-yl)amino]-5-bromobenzamide]",% time in black compartment,mice; 0.1 mg/kg s.c.,27%
same,Black compartment rearings/5 min,mice; 0.1 mg/kg s.c.,39 rearings/5 min
same,Black compartment transits/5 min,mice; 0.1 mg/kg s.c.,50 transits/5 min
same,Delay white → black,mice; 0.1 mg/kg s.c.,13 s
same,White compartment rearings/5 min,mice; 0.1 mg/kg s.c.,40 rearings/5 min
same,White compartment transits/5 min,mice; 0.1 mg/kg s.c.,48 transits/5 min
same,LD50,[1]; female mice,118 mg/kg
same,LD50,[1]; male mice,103 mg/kg
"CCN(CC)CCNC(=O)c1cc(Br)c(NC2=NC(C)CN2)cc1OC (centres unmarked) [Compound 3, N-[2-(diethylamino)ethyl]-2-methoxy-4-[(4,5-dihydro-4-methyl-1H-imidazol-2-yl)amino]-5-bromo-benzamide]",% time in black compartment,mice; 0.1 mg/kg s.c.,30%
same,Black compartment rearings/5 min,mice; 0.1 mg/kg s.c.,18 rearings/5 min
same,Black compartment transits/5 min,mice; 0.1 mg/kg s.c.,18 transits/5 min
same,Delay white → black,mice; 0.1 mg/kg s.c.,23 s
same,White compartment rearings/5 min,mice; 0.1 mg/kg s.c.,97 rearings/5 min
same,White compartment transits/5 min,mice; 0.1 mg/kg s.c.,104 transits/5 min
same,LD50,[1]; female mice,24 mg/kg
same,LD50,[1]; male mice,22 mg/kg
"CCN1CCCC1CNC(=O)c1cc(Cl)c(NC2=NC(C)CN2)cc1OC (centres unmarked) [Compound 5, N-(1-ethyl-2-pyrrolidinylmethyl)-2-methoxy-4-[(4,5-dihydro-4-methyl-1H-imidazol-2-yl)amino]-5-chlorobenzamide]",% time in black compartment,mice; 1 mg/kg s.c.,32%
same,Black compartment rearings/5 min,mice; 1 mg/kg s.c.,14 rearings/5 min
same,Black compartment transits/5 min,mice; 1 mg/kg s.c.,19 transits/5 min
same,Delay white → black,mice; 1 mg/kg s.c.,23 s
same,White compartment rearings/5 min,mice; 1 mg/kg s.c.,65 rearings/5 min
same,White compartment transits/5 min,mice; 1 mg/kg s.c.,89 transits/5 min
same,% time in black compartment,mice; 10 mg/kg s.c.,32%
same,Black compartment rearings/5 min,mice; 10 mg/kg s.c.,15 rearings/5 min
same,Black compartment transits/5 min,mice; 10 mg/kg s.c.,16 transits/5 min
same,Delay white → black,mice; 10 mg/kg s.c.,22 s
same,White compartment rearings/5 min,mice; 10 mg/kg s.c.,68 rearings/5 min
same,White compartment transits/5 min,mice; 10 mg/kg s.c.,80 transits/5 min
"CCN1CCCC1CNC(=O)c1cc(Br)c(NC2=NC(C)CN2)cc1OC (centres unmarked) [Compound 4, N-(1-ethyl-2-pyrrolidinylmethyl)-2-methoxy-4-[(4,5-dihydro-4-methyl-1H-imidazol-2-yl)amino]-5-bromobenzamide]",% time in black compartment,mice; 0.0001 mg/kg s.c.,27%
same,Black compartment rearings/5 min,mice; 0.0001 mg/kg s.c.,19 rearings/5 min
same,Black compartment transits/5 min,mice; 0.0001 mg/kg s.c.,21 transits/5 min
same,Delay white → black,mice; 0.0001 mg/kg s.c.,23 s
same,White compartment rearings/5 min,mice; 0.0001 mg/kg s.c.,73 rearings/5 min
same,White compartment transits/5 min,mice; 0.0001 mg/kg s.c.,82 transits/5 min
same,% time in black compartment,mice; 0.01 mg/kg s.c.,31%
same,Black compartment rearings/5 min,mice; 0.01 mg/kg s.c.,15 rearings/5 min
same,Black compartment transits/5 min,mice; 0.01 mg/kg s.c.,20 transits/5 min
same,Delay white → black,mice; 0.01 mg/kg s.c.,22 s
same,White compartment rearings/5 min,mice; 0.01 mg/kg s.c.,82 rearings/5 min
same,White compartment transits/5 min,mice; 0.01 mg/kg s.c.,83 transits/5 min
same,% time in black compartment,mice; 0.1 mg/kg s.c.,34%
same,Black compartment rearings/5 min,mice; 0.1 mg/kg s.c.,16 rearings/5 min
same,Black compartment transits/5 min,mice; 0.1 mg/kg s.c.,24 transits/5 min
same,Delay white → black,mice; 0.1 mg/kg s.c.,38 s
same,White compartment rearings/5 min,mice; 0.1 mg/kg s.c.,78 rearings/5 min
same,White compartment transits/5 min,mice; 0.1 mg/kg s.c.,99 transits/5 min
same,minimal effective dose,mice,≥ 0.1 µg/kg
same,Motor activity,"rats; 1 mg/kg s.c. 40 min before amphetamine 20 μg, time 10 min",34 ± 8 shifts from place to place/10 minutes
same,Motor activity,"rats; 1 mg/kg s.c. 40 min before amphetamine 20 μg, time 20 min",60 ± 13 shifts from place to place/10 minutes
same,Motor activity,"rats; 1 mg/kg s.c. 40 min before amphetamine 20 μg, time 30 min",40 ± 10 shifts from place to place/10 minutes
same,Motor activity,"rats; 1 mg/kg s.c. 40 min before amphetamine 20 μg, time 40 min",38 ± 13 shifts from place to place/10 minutes
same,Motor activity,"rats; 1 mg/kg s.c. 40 min before amphetamine 20 μg, time 50 min",37 ± 10 shifts from place to place/10 minutes
same,Motor activity,"rats; 1 mg/kg s.c. 40 min before amphetamine 20 μg, time 60 min",16 ± 2 shifts from place to place/10 minutes
same,Motor activity,"rats; 1 mg/kg s.c. 40 min before amphetamine 20 μg, time 70 min",8 ± 3 shifts from place to place/10 minutes
same,Motor activity,"rats; 1 mg/kg s.c. 40 min before amphetamine 20 μg, time 80 min",4 ± 2 shifts from place to place/10 minutes
same,Motor activity,"rats; 10 mg/kg s.c. 40 min before amphetamine 20 μg, time 10 min",38 ± 7 shifts from place to place/10 minutes
same,Motor activity,"rats; 10 mg/kg s.c. 40 min before amphetamine 20 μg, time 20 min",8 ± 1.4 shifts from place to place/10 minutes
same,Motor activity,"rats; 10 mg/kg s.c. 40 min before amphetamine 20 μg, time 30 min",9 ± 3 shifts from place to place/10 minutes
same,Motor activity,"rats; 10 mg/kg s.c. 40 min before amphetamine 20 μg, time 40 min",11 ± 1.6 shifts from place to place/10 minutes
same,Motor activity,"rats; 10 mg/kg s.c. 40 min before amphetamine 20 μg, time 50 min",5 ± 1 shifts from place to place/10 minutes
same,Motor activity,"rats; 10 mg/kg s.c. 40 min before amphetamine 20 μg, time 60 min",2 ± 1 shifts from place to place/10 minutes
same,LD50,[1]; female mice,18 mg/kg
same,LD50,[1]; male mice,15.5 mg/kg
"CCN(CC)CCNC(=O)c1cc(Cl)c(NC2=NCCO2)cc1OC [Compound 7, N-[2-(diethylamino)ethyl]-2-methoxy-4-[(4,5-dihydro-2-oxazolyl)amino]-5-chlorobenzamide]",% time in black compartment,mice; 0.1 mg/kg s.c.,27%
same,Black compartment rearings/5 min,mice; 0.1 mg/kg s.c.,16 rearings/5 min
same,Black compartment transits/5 min,mice; 0.1 mg/kg s.c.,16 transits/5 min
same,Delay white → black,mice; 0.1 mg/kg s.c.,24 s
same,White compartment rearings/5 min,mice; 0.1 mg/kg s.c.,69 rearings/5 min
same,White compartment transits/5 min,mice; 0.1 mg/kg s.c.,68 transits/5 min

# — US5086066A, “Method of providing anxiolytic and antipsychotic treatment with substituted benzamides” (priority 1988, dated 1992)
